Patent publication US7919519B2, “S1P receptor modulating compounds and use thereof” (Epix Pharmaceuticals Inc., priority 2005, dated 2011)
pEC50: −log10 of the molar value.

molecular target: T1, hS1P1 (Homo sapiens, UniProt P21453); assay: hS1P1 EC50 (S1P receptor Ca2+ flux protocol, CHO K1 Gqi5 cells); format: cell-based
T1 construct: expressed in transfected cells
Method: S1P receptor activity may also be measured by an S1P receptor (e.g., hS1P1, hS1P3, rS1P1, rS1P3 and parental cell) Ca^2+ Flux protocol as described below:
1. Material • a. FLIPR buffer: 1×HBSS; 10 mM HEPES • b. Cell growth media: • i. human and rat S1P1 and S1P3: F12-Ham's media; 10% FBS (qualified); 1× Pen/Strep/Glu; 300 ug/mL Hygromycin; 400 ug/mL Geneticin • ii. Parental cell: human and rat S1P1 and S1P3: F12-Ham's media; 10% FBS (qualified); 1× Pen/Strep/Glu; 300 ug/mL Hygromycin; • c. Cell seeding media; F12-Ham's media; 10% FBS (Charcoal/dextran stripped); 1× Pen/Strep/Glu; • d. Cell dissociation buffer: Versene from Invitrogen • e. Agonist (S1P) dissolving buffer: 0.4% (w/v) fatty-acid free BSA (Sigma #A8806) in FLIPR buffer • f. FLIPR dye: BD PBX Calcium assay kit; Cat#641077 is composed of Calcium indicator (Cat#850000) and 100×PBX signal enhancer (cat#850001). The 100×PBX signal enhancer is diluted into FLIPR buffer 1:100 and the calcium indicator is then added at 1:1000 ratio. • g. Cell plates (96-well): Greiner Cat#655090 • h. Compound plates (96-well): Costar #3365 • i. S1P stock solution preparation: S1P is purchased from CalBioChem (Catalog #970471; 1 mg vial; custom prep using methanol, & nitrogen gas drying inside glass vial; Storage @ −20° C.). Dissolve 1 vial of S1P into 26.4 ml of agonist dissolving buffer in a 50 ml centrifuge tube; Remove label from bottle of S1P, open and drop entire bottle into tube. Sonicate at 37° for ½ hour. Clear solution of 100 μM will result. This stock solution is aliquoted and stored at −80 C
2. Cell line maintenance • a. V5 tags were added at the N-terminus of hS1P1, hS1P3, rS1P1 and rS1P3. All four genes were transfected into CHO K1 cells which stably express Gqi5. • b. hS1P1 and hS1P3 were established as stable clones and rS1P1 and rS1P3 were sorted by anti V5 tag and established as stable pools after sorting. • c. Parental cell line CHO/K1 Gqi5 is used as the control. • d. All the cells are maintained in cell growth media and splitted twice a week using Versene. • e. All the cell lines are used under passage 30.
3. Assay protocol • a. Cell seeding: Cells are lifted from the flask by Versene and seeded in cell plates at 50K/well in cell seeding media. Cells are grown overnight at 37 degree. • b. Cell loading: Cell seeding media is discarded. Cells are loaded with 50 ul of FLIPR dye at RT for 90 min. Signal is stable for up to 5 h after dye loading. • c. Agonist (S1P) preparation: Frozen stock of S1P is thawed out and sonicated at 37 c for 30 minutes every time before use. The stock is then diluted into FLIPR buffer at proper concentration. • d. Compound preparation: Compounds are dissolved in DMSO. A 3×, 10 point dilution of the compounds are carried out in DMSO. Then the compounds are diluted into assay buffer 133× so that the DMSO concentration is 0.75%. • e. Activity measurement: The fluorescence signal change of the cells upon compound addition is monitored in FLIPRtetra. 25 ul of compound is transferred into the cell plates (50 ul of FLIPR dye; DMSO concentration: 0.25%). Signal is recorded for 90 sec after compound addition. Then 50 ul of 500 nM S1P is added in the cell plate, and signal is recorded for 90 seconds upon addition.
4. Data analysis • a. Peak value is calculated for each compound/S1P addition • b. The peak value of S1P at 200 nM is used as high control (100%), and the peak value of buffer only is used as low control (0%). • c. Data is normalized against high and low controls using the following equation: POC—S=100*(RAW−LO)/(HI−LO) • d. Peak value is plotted against the concentration of compound. • e. Curve is fitted using the 4 parameter fit: Y=(A+(B/(1+((x/C)^D)))) • where: • Y is POC_S (or POC) • X is compound concentration • A is the minimum (EC50min or IC50min) • B is the maximum (EC50max or IC50max) • C is the inflection point (EC50IP or IC50IP) • D is the hill slope (EC50 slope or IC50 slope).

T1 sequence (P21453 whole entry): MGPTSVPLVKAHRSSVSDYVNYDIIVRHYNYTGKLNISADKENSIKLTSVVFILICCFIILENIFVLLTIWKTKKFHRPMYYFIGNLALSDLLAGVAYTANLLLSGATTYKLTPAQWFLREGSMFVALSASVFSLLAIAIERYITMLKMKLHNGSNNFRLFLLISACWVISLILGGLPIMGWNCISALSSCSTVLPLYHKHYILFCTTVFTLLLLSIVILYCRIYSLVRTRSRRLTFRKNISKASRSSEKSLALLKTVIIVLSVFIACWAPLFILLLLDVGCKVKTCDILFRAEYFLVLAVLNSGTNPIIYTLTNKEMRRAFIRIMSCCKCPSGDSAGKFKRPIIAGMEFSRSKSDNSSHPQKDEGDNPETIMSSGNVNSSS

Compound | pEC50
O=C(O)C1CCN(Cc2ccc(-c3cc4cc(Cc5ccccc5)ccc4o3)cc2)CC1 [Compound 9, 1-((4-(5-Benzylbenzofuran-2-yl)phenyl)methyl)piperidine-4-carboxylic acid] | ≤ 4.60
CC(C)Cc1ccc2oc(-c3ccc(CN4CCC(C(=O)O)CC4)cc3)cc2c1 [Compound 13, 1-(4-(5-isobutylbenzofuran-2-yl)benzyl)piperidine-4-carboxylic acid] | < 4.60
O=C(O)C1CCN(Cc2ccc(-c3cc4cc(C5CCCCC5)ccc4o3)cc2)CC1 [Compound 7, 1-(4-(5-cyclohexylbenzofuran-2-yl)benzyl)piperidine-4-carboxylic acid] | < 4.60
CCCCOc1ccc2oc(-c3ncc(CN4CC(C(=O)O)C4)s3)cc2c1 [Compound 22, 1-((2-(5-butoxybenzofuran-2-yl)thiazol-5-yl)methyl)azetidine-3-carboxylic acid] | 5.96
CCCCOc1ccc2cc(-c3ccc(CN4CC(C(=O)O)C4)cc3)oc2c1 [Compound 21, 1-((4-(6-Butoxybenzofuran-2-yl)phenyl)methyl)azetidine-3-carboxylic acid] | 6.70
CC(C)(CC(=O)O)NCc1ccc(-c2cc3cc(Cc4ccccc4)ccc3o2)c(F)c1 [Compound 46, 3-((4-(5-Benzylbenzofuran-2-yl)-3-fluorophenyl)methylamino)-3-methylbutanoic acid] | < 4.60
O=C(O)C1CN(Cc2ccc(-c3cc4cc(CCc5ccccc5)ccc4o3)cc2)C1 [Compound 11, 1-((4-(5-phenethylbenzofuran-2-yl)phenyl)methyl)azetidine-3-carboxylic acid] | ≤ 4.60
CCCCOc1ccc2oc(-c3ccc(CN4CC(C(=O)O)C4)cc3F)cc2c1 [Compound 23, 1-((4-(5-Butoxybenzofuran-2-yl)3-fluorophenyl)methyl)azetidine-3-carboxylic acid] | 6.28
O=C(O)C1CN(Cc2ccc(-c3cc4cc(-c5cccs5)ccc4o3)cc2)C1 [Compound 28, 1-((4-(5-(thiophen-2-yl)benzofuran-2-yl)phenyl)methyl)azetidine-3-carboxylic acid] | ≤ 4.60
CCCCc1ccc2oc(-c3ccc(CN4CCC(C(=O)O)CC4)cc3)cc2c1 [Compound 8, 1-((4-(5-Butylbenzofuran-2-yl)phenyl)methyl)piperidine-4-carboxylic acid] | < 4.60
